The results in this text go back to patent US8822519B2, “Compound with agitation effect on peroxisome proliferator-activated receptor process for its preparation and use thereof” (Zhejiang Hisun Pharmaceutical Co., Ltd., priority 2008, dated 2014).

Experiment [1] deals with T1, PPARδ (Homo sapiens, UniProt Q03181).
T1 construct: expressed in transfected cells; host or cells: HepG2 (human hepatocarcinoma, ATCC)
T1 sequence (Q03181 1-441): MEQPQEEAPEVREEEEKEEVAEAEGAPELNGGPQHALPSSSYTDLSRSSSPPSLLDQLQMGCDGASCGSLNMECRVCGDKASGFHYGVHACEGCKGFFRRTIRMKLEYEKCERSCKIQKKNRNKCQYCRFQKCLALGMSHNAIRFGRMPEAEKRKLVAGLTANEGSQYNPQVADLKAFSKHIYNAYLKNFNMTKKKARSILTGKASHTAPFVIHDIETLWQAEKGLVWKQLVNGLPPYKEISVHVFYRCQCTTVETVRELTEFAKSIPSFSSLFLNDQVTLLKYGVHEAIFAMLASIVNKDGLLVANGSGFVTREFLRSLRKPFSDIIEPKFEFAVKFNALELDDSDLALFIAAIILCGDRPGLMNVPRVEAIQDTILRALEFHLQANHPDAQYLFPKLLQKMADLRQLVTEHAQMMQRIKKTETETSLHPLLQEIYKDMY
T1 sequence (P19793 1-462 partner): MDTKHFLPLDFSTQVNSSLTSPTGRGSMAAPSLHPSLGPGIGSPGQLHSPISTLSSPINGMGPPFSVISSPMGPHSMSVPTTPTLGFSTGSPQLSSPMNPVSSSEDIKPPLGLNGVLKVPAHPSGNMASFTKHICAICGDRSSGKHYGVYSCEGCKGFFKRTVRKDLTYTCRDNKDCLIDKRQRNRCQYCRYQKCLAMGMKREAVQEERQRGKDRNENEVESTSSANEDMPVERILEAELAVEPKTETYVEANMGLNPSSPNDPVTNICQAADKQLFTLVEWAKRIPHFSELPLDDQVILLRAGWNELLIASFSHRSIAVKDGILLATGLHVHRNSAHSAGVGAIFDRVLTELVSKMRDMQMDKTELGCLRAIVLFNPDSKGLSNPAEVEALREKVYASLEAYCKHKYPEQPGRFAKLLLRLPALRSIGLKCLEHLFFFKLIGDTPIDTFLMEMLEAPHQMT
The experiment can be described thus: In vitro screening of nuclear receptor agonist: luciferase reporter gene assay in HepG2 cells. The experiment is classed as cell-based. As to conditions: RXR/PPARδ luciferase reporter gene, 24 h treatment. The text has this: Using a reporter gene protocol, the screening model for screening a nuclear receptor agonist in a living cell is designed on a basis of the principal that an activated nuclear receptor can activate transcription of its downstream gene. A reporter gene plasmid is constructed, in which the DNA binding sequence for the nuclear receptor (NRE) is inserted upstream of the luciferase gene, so that the expression of the luciferase gene is placed under the control of the nuclear receptor. Then, the reporter gene plasmid and the nuclear receptor are simultaneously transferred into a cell, and the nuclear receptor is activated when the nuclear receptor agonist is present in the cell culture medium. Then the activated receptor is able to induce the expression of the luciferase gene, while the amount of the luciferase can be determined through its luminous substrate. In this way, the intensity of activation by the compound on the nuclear receptor could be known by observing the luminescence intensity.
The specific operation is described as follows:
The experiment reagents: the compounds to be tested (20 mM, in DMSO, stored at −80° C.).
The hepatocarcinoma cell HepG2 (from ATCC, American Type Culture Collection) was cultured in DMEM medium supplemented with 10% heat-inactivated fetal bovine serum (FBS, Invitogen, Grand Island, N.Y., USA) in a T-75 culture bottle (Greiner, Germany) in a incubator at 37° C., the relative humidity of 100%, and 5% CO2. When the cell culture in the culture bottle reached 80-90% confluency, it was digested with 0.25% Trypsin (with EDTA) for 3 min and inoculated into a 96-well cell culture plate at an inoculating density of 2000 cells/100 μl/well.
In the next day, when the cells in the 96-well culture plate grew up to 50-80% confluency, cell transfection was performed. The cell co-transfection system comprised the FuGene6 transfection agent (Roche Molecular Biochemicals, Indianapolis, Ind., U.S.A.) and 60 ng DNA (long of hRXR, 10 ng of pCMV βGal, 10 ng of the nuclear receptor expression plasmid RXR/PPARδ, 30 ng of GFP fluorescence reporter gene plasmid, respectively).
The cell culture medium was discarded immediately at 24 hours post-transfection and replaced by 200 μl of a fresh DMEM medium containing the medicament to be tested (with 10% FBS treated by activated carbon).
24 h after treatment with the medicament, the cells were lysed with a lysis solution (Cell Culture Lysis buffer, Promega) and centrifuged, and the supernatant was collected. The supernatant was treated with a fluorescence detection kit (Promega) and counted by a fluorescence meter (Ascent Fluoroskan FL reader, Thermo Labsystems, Finland), and the relative intensity of the luciferase was determined. For assaying the β-galactosidase activity used in the experiment as the inner reference (the inner reference calibrating for the transfection efficiency), 50 μl of the supernatant was transferred into a fresh microplate and treated with the Promega kit and read at a wavelength of 405 nm from a microplate reader (Bio-tech Instruments Inc., Winooski, Vt., USA) (Sauerberg, P.; Olsen, G. S.; Jeppesen, L.; Mogensen, J. P. et al., J. Med. Chem., 2007, 50, 1495-1503).
The median effective concentration (EC50) of a sample is a concentration at which the sample has 50% pharmacological effect. This value is one of the important parameters for evaluating pharmacological effects of a compound. In the present screening process, the EC50 of a sample was calculated according to the activation of the receptor by the sample at six different concentrations.

Experiment [2] relates to high fat fodder obese C57BL/6J mice. The experiment can be described thus: High fat fodder obese mice: body weight and food intake. The format is in vivo. The text has this: 3 week-old male C57BL/6J mice were chosen as experiment animals, 15 of which were randomly selected to feed with a standard fodder, and the remains were allowed to feed with a high fat fodder, with each of the mice being marked by ear-cutting. The body weights and fodder intake of the mice were weighed every week. […] After the administration of the inventive compounds for four weeks, the effects of the medicaments on the levels of blood lipid and blood glucose, body weight, and fodder intake in the animals were observed, while a glucose tolerance test was performed to investigate the effects of the medicaments on the glucose tolerance in the animals.

Experiment [3] has the same test system. The experiment can be described thus: High fat fodder obese mice: levels of blood lipid and blood glucose. As to conditions: mean ± s, n 5. The format is in vivo. Also noted: HDL / GLU / TC / TG: unit not given here. An excerpt:
3 week-old male C57BL/6J mice were chosen as experiment animals, 15 of which were randomly selected to feed with a standard fodder, and the remains were allowed to feed with a high fat fodder, with each of the mice being marked by ear-cutting. The body weights and fodder intake of the mice were weighed every week. […] […], the effects of the medicaments on the levels of blood lipid and blood glucose, body weight, and fodder intake in the animals were observed, while a glucose tolerance test was performed to investigate the effects of the medicaments on the glucose tolerance in the animals.

Where [4] appears, read: 2 weeks administration, 10 mg/kg.
Where [5] appears, read: 2 weeks administration, 30 mg/kg.
The mark [6] stands for this setting: 4 weeks administration, 10 mg/kg.
The mark [7] stands for this setting: 4 weeks administration, 30 mg/kg.

Each structure is given as a SMILES string.

Regarding `Cc1cc(OC(c2ccccc2)c2nn(-c3ccc(C(F)(F)F)cc3)c(=O)n2C)ccc1SCC(=O)O` (stereo not shown) [Compound A-2, 2-(2-methyl-4-(1-(3-(4-methyl-5-oxo-1-(4-trifluoromethyl-phenyl)-4,5-dihydrogen-1H-1,2,4-triazolyl))-benzyloxy)-phenylthio)-acetic acid], in experiment [1], the EC50 is 100 nM.
With `Cc1cc(SC(c2ccccc2)c2nn(-c3ccc(C(F)(F)F)cc3)c(=O)n2C)ccc1OCC(=O)O` (stereo not shown) [Compound A-4, 2-(2-methyl-4-(1-(3-(4-methyl-5-oxo-1-(4-trifluoromethyl-phenyl)-4,5-dihydrogen-1H-1,2,4-triazolyl))-benzylthio)-phenoxy)-acetic acid], in experiment [1], a half-maximal effect (EC50) was put at 10 nM.
The same measure, in the same setting: next, `CCc1cc(OC(c2ccccc2)c2nn(-c3ccc(C(F)(F)F)cc3)c(=O)n2C)ccc1OCC(=O)O` (stereo not shown) [Compound A-5, 2-(2-ethyl-4-(1-(3-(4-methyl-5-oxo-1-(4-trifluoromethyl-phenyl)-4,5-dihydrogen-1H-1,2,4-triazolyl))-benzyloxy)-phenoxy)-acetic acid]: 340 nM.
Regarding `Cc1cc(OCC(=O)O)ccc1OC(c1ccccc1)c1nn(-c2ccc(C(F)(F)F)cc2)c(=O)n1C` (stereo not shown) [Compound A-6, 2-(3-methyl-4-(1-(3-(4-methyl-5-oxo-1-(4-trifluoromethyl-phenyl)-4,5-dihydrogen-1H-1,2,4-triazolyl))-benzyloxy)-phenoxy)-acetic acid], the EC50 in experiment [1] is 2090 nM.
The same measure, in the same setting: next, `Cc1cc(OCC(=O)O)ccc1SC(c1ccccc1)c1nn(-c2ccc(C(F)(F)F)cc2)c(=O)n1C` (stereo not shown) [Compound A-7, 2-(3-methyl-4-(1-(3-(4-methyl-5-oxo-1-(4-trifluoromethyl-phenyl)-4,5-dihydrogen-1H-1,2,4-triazolyl))-benzylthio)-phenoxy)-acetic acid]: 380 nM; `Cc1cc(SCc2nn(-c3ccc(C(F)(F)F)cc3)c(=O)n2C)ccc1OCC(=O)O` [Compound A-8, 2-(2-methyl-4-(3-(4-methyl-5-oxo-1-(4-trifluoromethyl-phenyl)-4,5-dihydrogen-1H-1,2,4-triazolyl)-methylthio)-phenoxy)-acetic acid]: 3020 nM.
Regarding `Cc1cc(OCc2nn(-c3ccc(C(F)(F)F)cc3)c(=O)n2C)ccc1OCC(=O)O` [Compound A-9, 2-(2-methyl-4-(3-(4-methyl-5-oxo-1-(4-trifluoromethyl-phenyl)-4,5-dihydrogen-1H-1,2,4-triazolyl)-methoxy)-phenoxy)-acetic acid], a half-maximal response in experiment [1] (EC50) required 6610 nM.
`Cc1cc(SC(c2ccccc2)c2nn(-c3ccc(C(F)(F)F)cc3)c(=O)n2C)c(C)cc1OCC(=O)O` (stereo not shown) [Compound A-10, 2-(2,5-dimethyl-4-(1-(3-(4-methyl-5-oxo-1-(4-trifluoromethyl-phenyl)-4,5-dihydrogen-1H-1,2,4-triazolyl))-benzylthio)-phenoxy)-acetic acid] gave an EC50 in experiment [1] of 100 nM.
On the same count and under the same terms, to `Cc1cc(SCC(=O)O)ccc1OCc1nn(-c2ccc(C(F)(F)F)cc2)c(=O)n1C` [Compound A-12, 2-(3-methyl-4-(3-(4-methyl-5-oxo-1-(4-trifluoromethyl-phenyl)-4,5-dihydrogen-1H-1,2,4-triazolyl)-methoxy)-phenylthio)-acetic acid] belongs 650 nM; to `Cc1cc(SC(c2ccccc2)c2nn(-c3ccc(C(F)(F)F)cc3)c(=O)n2C)ccc1OC(C)C(=O)O` (stereo not shown) [Compound A-13, 2-methyl-2-(2-methyl-4-(1-(3-(4-methyl-5-oxo-1-(4-trifluoromethyl-phenyl)-4,5-dihydrogen-1H-1,2,4-triazolyl))-benzylthio)-phenoxy)-acetic acid], 20 nM; to `CCc1cc(SC(c2ccccc2)c2nn(-c3ccc(C(F)(F)F)cc3)c(=O)n2C)ccc1OCC(=O)O` (stereo not shown) [Compound A-14, 2-(2-ethyl-4-(1-(3-(4-methyl-5-oxo-1-(4-trifluoromethyl-phenyl)-4,5-dihydrogen-1H-1,2,4-triazolyl))-benzylthio)-phenoxy)-acetic acid], less than 1 nM.
`CCCCCCCCCCC[C@@H](C[C@@H]1OC(=O)[C@H]1CCCCCC)OC(=O)[C@H](CC(C)C)NC=O` [Orlistat, reference compound]: the Food intake in experiment [2] (column 1, 10 mg/kg) came out at 5.88 g; in experiment [2] (column 1, 30 mg/kg), 6.04 g; in experiment [2] (column 2, 10 mg/kg), 5.42 g; in experiment [2] (column 2, 30 mg/kg), 4.66 g; in experiment [2] (column 3, 10 mg/kg), 6.7 g; in experiment [2] (column 3, 30 mg/kg), 5.52 g. In addition, the Food intake in experiment [2] (column 4, 10 mg/kg) was 6.64 g; in experiment [2] (column 4, 30 mg/kg), 7.78 g; in experiment [2] (column 5, 10 mg/kg), 6.4 g; in experiment [2] (column 5, 30 mg/kg), 7.92 g. The GLU in experiment [3] (setting [4]) worked out at 11.11 ± 1.08; in experiment [3] (setting [5]) it was 8.81 ± 2.16; in experiment [3] (setting [6]) it was 11.05 ± 1.09; in experiment [3] (setting [7]), 9.84 ± 1.83. Also, the HDL in experiment [3] (setting [4]) stood at 3.29 ± 0.27; in experiment [3] (setting [5]), 2.72 ± 0.3; in experiment [3] (setting [6]) it was 2.63 ± 1.27; in experiment [3] (setting [7]) it was 2.79 ± 0.35. Also, the TC is 3.81 ± 2.56 in experiment [3] (setting [4]), 3.89 ± 0.44 in experiment [3] (setting [5]), 4.24 ± 0.33 in experiment [3] (setting [6]) and 3.48 ± 0.54 in experiment [3] (setting [7]). Also, the TG in experiment [3] (setting [4]) was 0.36 ± 0.09; in experiment [3] (setting [5]) it was 0.45 ± 0.09; in experiment [3] (setting [6]) it was 0.28 ± 0.03; in experiment [3] (setting [7]) it was 0.41 ± 0.04.
